Reference: patent US20240391958A1, “KEANUMYCINS AND USES THEREOF IN MEDICINE AND PLANT PROTECTION” (Leibniz-Institut für Naturstoff-Forschung und …, priority 2023, published 2024)
In brackets after ≈: the same amount, converted by molar mass. Several values for one entry are separate records, joined by “and”; a condition that tells them apart may be missing. Equal values may be shown once. Read-outs that look alike come from different tables or passages of the source. Where a SMILES comes first, the peptide text is derived from it. Bridges are numbered along the chain shown (N, C = ends). [ ]: non-standard residue; d: D form. The star is where a group is joined. X1 = CCCCCCCCCCCC[C@@H](O)[C@@H](O)CC(=O)*; Asp(3S-OH) = N[C@H](C(=O)O)[C@H](O)C(=O)O; Thr(4-Cl) = N[C@H](C(=O)O)[C@H](O)CCl; aThr = C[C@H](O)[C@H](N)C(=O)O; d(hSer) = N[C@H](CCO)C(=O)O; dDab = NCC[C@@H](N)C(=O)O; Dab = NCC[C@H](N)C(=O)O; Dhb = C/C=C(\N)C(=O)O

How the values were obtained:
[1] = system: Enterococcus faecalis (VRE) 1528; assay: Disk diffusion test; type: cell-based; details: 1 mg/mL in MeOH, 50 μL per 9 mm hole, 24 h 37 °C
Procedure: (§1) A qualitative screen of different microorganisms was performed using a disk diffusion test. Each microorganism was plated on Mueller Hinton agar plates and 9 mm holes were punched out. The respective compounds were dissolved in the indicated solvent to yield solutions of specified concentrations. 50 μL of the respective solutions were placed in each hole. The plates were incubated for 24 h at 37° C. After incubation, the size of inhibition zones was determined.

[2] = system: Pseudomonas aeruginosa SG 137; assay: Disk diffusion test; type: cell-based; details: 1 mg/mL in MeOH, 50 μL per 9 mm hole, 24 h 37 °C
Procedure: as §1

Penicillium notatum = assay: Disk diffusion test; type: cell-based; details: 1 mg/mL in MeOH, 50 μL per 9 mm hole, 24 h 37 °C; methanol alone 10 mm
Procedure: as §1

[3] = system: Sporobolomyces salmonicolor; assay: Disk diffusion test; type: cell-based; details: 1 mg/mL in MeOH, 50 μL per 9 mm hole, 24 h 37 °C; methanol alone 10 mm
Procedure: as §1

Mycobacterium vaccae = assay: Disk diffusion test; type: cell-based; details: 1 mg/mL in MeOH, 50 μL per 9 mm hole, 24 h 37 °C
Procedure: as §1

[4] = system: Pseudomonas aeruginosa K799/61; assay: Disk diffusion test; type: cell-based; details: 1 mg/mL in MeOH, 50 μL per 9 mm hole, 24 h 37 °C
Procedure: as §1

[5] = system: Staphylococcus aureus SG 511; assay: Disk diffusion test; type: cell-based; details: 1 mg/mL in MeOH, 50 μL per 9 mm hole, 24 h 37 °C
Procedure: as §1

Bacillus subtilis = assay: Disk diffusion test; type: cell-based; details: 1 mg/mL in MeOH, 50 μL per 9 mm hole, 24 h 37 °C
Procedure: as §1

[6] = system: Staphylococcus aureus (MRSA) 134/94; assay: Disk diffusion test; type: cell-based; details: 1 mg/mL in MeOH, 50 μL per 9 mm hole, 24 h 37 °C
Procedure: as §1

Candida albicans = assay: Disk diffusion test; type: cell-based; details: 1 mg/mL in MeOH, 50 μL per 9 mm hole, 24 h 37 °C
Procedure: as §1

Escherichia coli = assay: Disk diffusion test; type: cell-based; details: 1 mg/mL in MeOH, 50 μL per 9 mm hole, 24 h 37 °C
Procedure: as §1

C. albicans [7] = assay: Fungal viability in vaginal epithelial infection model (XTT); type: cell-based, Candida albicans; details: XTT absorbance after 24-hour infection, N=2
Procedure: FIGS. 7A-7B show in 7A) Keanumycin A protected human vaginal epithelial cells in C. albicans infection model. Micrograph depicts % damage to human vaginal epithelial cells A431 (y-axis) in the presence of keanumycin A at varied concentrations (x-axis) as estimated by LDH cytotoxicity assay after 24 hours of infection or treatment. LDH absorbance was normalized to C. albicans infected and uninfected controls. Keanumycin A protected vaginal cells from damage by C. albicans at a narrow concentration range from 4-8 μg/ml (black line). Keanumycin A was toxic to vaginal cells at concentrations above 8 μg/ml (grey line) (N=3). […] Vaginal epithelial cells were lysed after 24-hour infection, and fungal viability was measured by XTT absorbance, normalized to C. albicans infected and uninfected controls (N=2) […]
Overnight culture of C. albicans strain SC5314 grown in YPD at 30° C., shaking at 180 RPM was harvested, washed twice with PBS. […] Epithelial damage was measured 24 hours after infection by collecting and diluting the supernatant 1:10 in PBS and measuring the lactate dehydrogenase (LDH) activity with the Roche Cytotoxicity Detection Kit (LDH) as per manufacturer's instructions. The absorbance (490 nm) values are represented as percentage damage, which is normalized to the low control, where medium only is 0% damage, and high control, where C. albicans infection is 100% damage. […]

[8] = system: C. albicans homozygous knockout mutants; assay: Screen of homozygous knockout mutants for growth differences; type: cell-based, Candida albicans; details: absence vs presence of a sublethal concentration
Source text: To see if keanumycin A triggers the same canonical Ire1-Hac1 UPR pathway, the inventors looked at the splicing of HAC1 mRNA, which is regulated by Ire1. […] Since no other specific signaling pathway stood out, the inventors screened homozygous knockout mutants for significant growth differences in the absence and presence of a sublethal concentration of the NRLP. […] PLB5 is an important gene for phospholipid homeostasis and PMT6 codes for a transmembrane protein mannosyltransferase, which is involved in the construction of the outmost mannan cell wall layer in C. albicans.

[9] = system: human chronic myeloid leukemia cells K-562 (DSM ACC 10); assay: Antiproliferative effect; type: cell-based
Procedure: (§2) Keanumycin A was assayed for antiproliferative effects (GI50) using human umbilical vein endothelial cells HUVEC (ATCC CRL-1730) and human chronic myeloid leukemia cells K-562 (DSM ACC 10) and for their cytotoxic effects (CC50) using human cervix carcinoma cells HeLa (DSM ACC 57) as previously described). The test compounds were dissolved in DMSO (10 mg mL-1).

[10] = system: human umbilical vein endothelial cells HUVEC (ATCC CRL-1730); assay: Antiproliferative effect; type: cell-based
Procedure: as §2

C. albicans [11] = assay: Genome-wide microarray, transcription rate change; type: cell-based, Candida albicans; details: sublethal concentration, 1-h exposure, vs nontreated
[12] = system: Aspergillus fumigatus ATCC 204305; assay: Broth dilution method (EUCAST); type: cell-based; details: Aspergillus fumigatus
Procedure: (§3) The activity assay was performed using the broth dilution method according to the EUCAST DEFINITIVE DOCUMENT E.DEF 9.3.2. B. cinerea and A. solani were incubated according to the Methods for dilution antimicrobial susceptibility tests for bacteria that grow aerobically by the NCCLS. Keanumycin A was dissolved in DMSO.

[13] = system: Fusarium proliferatum 2021-361; assay: Broth dilution method (EUCAST); type: cell-based
Procedure: as §3

[14] = system: Candida parapsilosis ATCC 22019; assay: Broth dilution method (EUCAST); type: cell-based; details: Lodderomyces parapsilosis
Procedure: as §3

Candida auris 2021-353 = assay: Broth dilution method (EUCAST); type: cell-based
Procedure: as §3

SMILES: C/C=C1\NC(=O)[C@H]([C@H](C)O)NC(=O)[C@H](CCN)NC(=O)[C@@H](CCO)NC(=O)CNC(=O)[C@@H](CCN)NC(=O)[C@@H](NC(=O)C[C@H](O)[C@H](O)CCCCCCCCCCCC)COC(=O)[C@H]([C@H](O)CCl)NC(=O)[C@H]([C@H](O)C(=O)O)NC1=O [Keanumycin A, keanumycin A] (X1-S[dDab]G[d(hSer)][Dab][aThr][Dhb][Asp(3S-OH)][Thr(4-Cl)]; ester 1-C)
- Inhibition area diameter [1]: 12 mm
- Inhibition area diameter [2]: 0 mm
- Inhibition area diameter (Penicillium notatum): 26 mm
- Inhibition area diameter [3]: 28 mm
- Inhibition area diameter (Mycobacterium vaccae): 13 mm
- Inhibition area diameter [4]: 0 mm
- Inhibition area diameter [5]: 10 mm
- Inhibition area diameter (Bacillus subtilis): 11 mm
- Inhibition area diameter [6]: 0 mm
- Inhibition area diameter (Candida albicans): 30 mm
- Inhibition area diameter (Escherichia coli): 0 mm
- % fungal viability of C. albicans in infection model (C. albicans [7]): reduced C. albicans viability
- growth differences of knockout mutants [8]: most prominent growth differences were observed for Δmkc1, Δplb5, and Δpmt6
- GI50 ([9]; K562): 26.8 µg/mL
- GI50 ([9]; K562, K-562, converted value, read-out: GI50): 23 µM
- GI50 [10]: ≥ 50 µg/mL
- GI50 ([10]; converted value, read-out: GI50): > 43 µM
- transcription rate change, ERG3 (C. albicans [11]; ergosterol biosynthesis): −1.83 log2-fold change
- transcription rate change, IPT1 (C. albicans [11]; sphingolipid biosynthesis): −0.44 log2-fold change
- transcription rate change, ORM1 (C. albicans [11]; sphingolipid biosynthesis): 0.55 log2-fold change
- transcription rate change, SCS7/FAH1 (C. albicans [11]; sphingolipid biosynthesis): −1.10 log2-fold change
- transcription rate change, SYR2/SUR2 (C. albicans [11]; sphingolipid biosynthesis): 0.66 log2-fold change
- MIC ([12]; ATCC204305): 3.42 µM and 4 µg/mL
- MIC ([12]; ATCC204305, read-out: Result of the broth dilution method assay (MIC)): 4 µg/mL (≈ 3.43 µM)
- MIC [13]: > 6.85 µM and > 8 µg/mL
- MIC ([13]; Fusarium proliferatum, 2021361, read-out: Result of the broth dilution method assay (MIC)): > 8 µg/mL
- MIC ([14]; ATCC22019): 0.86 µM and 1 µg/mL
- MIC ([14]; ATCC22019, read-out: Result of the broth dilution method assay (MIC)): 1 µg/mL (≈ 0.857 µM)
- MIC (Candida auris 2021-353; Candidozyma auris, 2021353): 0.86 µM and 1 µg/mL
- MIC (Candida auris 2021-353; Candidozyma auris, 2021353, read-out: Result of the broth dilution method assay (MIC)): 0.5 to 1 µg/mL (≈ 0.429 to 0.857 µM)
